Source: patent US7879858B2, “Substituted tetrahydropyrrolopyrazine compounds and the use thereof in pharmaceutical compositions” (Gruenenthal GmbH, priority 2006, dated 2011)

Key:
[1] = test system: NA reuptake; experiment: Inhibition of NA (noradrenaline) uptake in rat hypothalamus synaptosomes; format: biochemical; conditions: synaptosomes from hypothalamus of male rat brains
Experimental: (§1) Biological Data Inhibition of NA and 5HT Uptake
(§2) In order to be able to carry out these in vitro studies, synaptosomes are freshly isolated from areas of the rat brain. In each case a so-called “P2” fraction prepared in accordance with the instructions of Gray and Whittaker (E. G. Gray and V. P. Whittaker (1962) J. Anat. 76, 79-88) is prepared. For the NA uptake, these vesicular particles are isolated from the hypothalamus of male rat brains. A detailed description of the method can be found in the literature (M. Ch. Frink, H.-H. Hennies, W. Englberger, M. Haurand and B. Wilffert (1996) Arzneim.-Forsch./Drug Res. 46 (III), 11, 1029-1036).

[2] = target: T1, Serotonin reuptake (Rattus norvegicus, UniProt P31652); experiment: Inhibition of 5HT (serotonin) uptake in rat brain synaptosomes; format: biochemical; conditions: 10 μmol; synaptosomes from rat brain
T1 construct: synaptosomes are freshly isolated from areas of the rat brain; from tissue; host or cells: rat brain synaptosomes (P2 fraction)
T1 sequence (P31652 whole entry): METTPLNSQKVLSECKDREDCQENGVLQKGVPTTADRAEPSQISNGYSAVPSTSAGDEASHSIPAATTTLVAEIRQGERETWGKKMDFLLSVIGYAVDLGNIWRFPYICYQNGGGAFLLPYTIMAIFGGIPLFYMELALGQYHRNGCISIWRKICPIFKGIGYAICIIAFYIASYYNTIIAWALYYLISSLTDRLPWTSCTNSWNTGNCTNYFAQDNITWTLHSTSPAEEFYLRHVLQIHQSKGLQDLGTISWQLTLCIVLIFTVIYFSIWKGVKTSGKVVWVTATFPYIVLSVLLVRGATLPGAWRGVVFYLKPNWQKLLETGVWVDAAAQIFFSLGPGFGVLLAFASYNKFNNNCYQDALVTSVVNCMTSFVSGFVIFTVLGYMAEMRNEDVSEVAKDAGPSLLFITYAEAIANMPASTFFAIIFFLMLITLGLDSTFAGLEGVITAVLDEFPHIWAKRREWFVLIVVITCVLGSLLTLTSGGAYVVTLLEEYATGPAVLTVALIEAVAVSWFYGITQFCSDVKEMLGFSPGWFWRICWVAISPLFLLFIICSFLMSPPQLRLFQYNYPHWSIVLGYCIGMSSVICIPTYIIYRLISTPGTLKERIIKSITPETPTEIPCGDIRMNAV
Experimental: as §1, §2

Row | Compound | inhibition at 10 µM [2] [%] | NA reuptake % inhibition [10 μmol] [1] [%]
1 | O=C(c1ccc(F)cc1)N1CCn2cccc2C1c1ccccc1 (centres unmarked) [Example 20, (4-fluorophenyl)(1-phenyl-3,4-dihydropyrrolo[1,2-a]pyrazin-2(1H)-yl)methanone] | 32 | 33
2 | COCC(=O)N1CCn2cccc2C1c1ccccc1 (centres unmarked) [Example 25, 2-methoxy-1-(1-phenyl-3,4-dihydropyrrolo[1,2-a]pyrazin-2(1H)-yl)ethanone] | 33 | 12
3 | O=C(c1ccc2c(c1)OCO2)N1CCn2cccc2C1c1ccc2c(c1)OCCO2 (centres unmarked) [Example 33, benzo[1,3]dioxol-5-yl-[1-(2,3-dihydro-benzo[1,4]dioxin-6-yl)-3,4-dihydro-1H-pyrrolo[1,2-a]pyrazin-2-yl]-methanone] | 52 | 26
4 | O=C(c1ccco1)N1CCn2cccc2C1c1ccccc1 (centres unmarked) [Example 21, furan-2-yl(1-phenyl-3,4-dihydropyrrolo[1,2-a]pyrazin-2(1H)-yl)methanone] | 11 | 44
5 | O=C(C1CCCC1)N1CCn2cccc2C1c1cccc(Cl)c1 (centres unmarked) [Example 42, (1-(3-chlorophenyl)-3,4-dihydropyrrolo[1,2-a]pyrazin-2(1H)-yl)(cyclopentyl)methanone] | 30 | 22
6 | O=C(c1ccccc1F)N1CCn2cccc2C1c1ccc2c(c1)OCCO2 (centres unmarked) [Example 35, [1-(2,3-dihydro-benzo[1,4]dioxin-6-yl)-3,4-dihydro-1H-pyrrolo[1,2-a]pyrazin-2-yl]-(2-fluoro-phenyl)-methanone] | 66 | 43
7 | COc1ccccc1C1c2cccn2CCN1C(=O)c1cccc(F)c1 (centres unmarked) [Example 1, (3-fluorophenyl)(1-(2-methoxyphenyl)-3,4-dihydropyrrolo[1,2-a]pyrazin-2(1H)-yl)methanone] | 26 | –
8 | O=C(c1ccccc1F)N1CCn2cccc2C1c1cccc(Cl)c1 (centres unmarked) [Example 44, [1-(3-chloro-phenyl)-3,4-dihydro-1H-pyrrolo[1,2-a]pyrazin-2-yl]-(2-fluoro-phenyl)-methanone] | 53 | 41
9 | Cc1ccccc1C1c2cccn2CCN1C(=O)c1ccc2c(c1)OCO2 (centres unmarked) [Example 12, benzo[d][1,3]dioxol-5-yl(1-o-tolyl-3,4-dihydropyrrolo[1,2-a]pyrazin-2(1H)-yl)methanone] | 34 | 22
10 | Cc1cccc(C2c3cccn3CCN2C(=O)c2cccs2)c1 (centres unmarked) [Example 14, thiophen-2-yl(1-m-tolyl-3,4-dihydropyrrolo[1,2-a]pyrazin-2(1H)-yl)methanone] | 27 | 25
11 | Cc1ccccc1C(=O)N1CCn2cccc2C1c1ccccc1F (centres unmarked) [Example 8, (1-(2-fluorophenyl)-3,4-dihydropyrrolo[1,2-a]pyrazin-2(1H)-yl)(o-tolyl)methanone] | 37 | 18
12 | O=C(c1cccs1)N1CCn2cccc2C1c1ccccc1 (centres unmarked) [Example 22, (1-phenyl-3,4-dihydropyrrolo[1,2-a]pyrazin-2(1H)-yl)(thiophen-2-yl)methanone] | 18 | 33
13 | Cc1cccc(C2c3cccn3CCN2C(=O)C2CCCC2)c1 (centres unmarked) [Example 17, cyclopentyl(1-m-tolyl-3,4-dihydropyrrolo[1,2-a]pyrazin-2(1H)-yl)methanone] | 34 | 21
14 | Cc1cccc(C2c3cccn3CCN2C(=O)c2ccc(F)cc2)c1 (centres unmarked) [Example 13, (4-fluoro-phenyl)-(1-m-tolyl-3,4-dihydro-1H-pyrrolo[1,2-a]pyrazin-2-yl)-methanone] | 55 | 41
15 | Cc1ccccc1C1c2cccn2CCN1C(=O)c1ccccc1F (centres unmarked) [Example 32, (2-fluorophenyl)(1-o-tolyl-3,4-dihydropyrrolo[1,2-a]pyrazin-2(1H)-yl)methanone] | 29 | 14
16 | COc1ccccc1C(=O)N1CCn2cccc2C1c1ccccc1 (centres unmarked) [Example 27, (2-methoxyphenyl)(1-phenyl-3,4-dihydropyrrolo[1,2-a]pyrazin-2(1H)-yl)methanone] | 28 | 15
17 | COc1ccccc1C(=O)N1CCn2cccc2C1c1ccccc1OC (centres unmarked) [Example 4, (2-methoxy-phenyl)-[1-(2-methoxy-phenyl)-3,4-dihydro-1H-pyrrolo[1,2-a]pyrazin-2-yl]-methanone] | 82 | 13
18 | CCC(C)C(=O)N1CCn2cccc2C1c1ccccc1C (centres unmarked) [Example 31, 2-methyl-1-(1-o-tolyl-3,4-dihydropyrrolo[1,2-a]pyrazin-2(1H)-yl)butan-1-one] | 26 | –
19 | O=C(c1ccccc1)N1CCn2cccc2C1c1cccs1 (centres unmarked) [Example 82, phenyl(1-(thiophen-2-yl)-3,4-dihydropyrrolo[1,2-a]pyrazin-2(1H)-yl)methanone] | – | 35
20 | Cc1ccccc1C(=O)N1CCn2cccc2C1c1ccccc1C (centres unmarked) [Example 11, o-tolyl(1-o-tolyl-3,4-dihydropyrrolo[1,2-a]pyrazin-2(1H)-yl)methanone] | 38 | –

More lines, main results first:

Row | inhibition at 10 µM [2] [%] | Compound | NA reuptake % inhibition [10 μmol] [1] [%]
21 | 65 | O=C(c1ccccc1F)N1CCn2cccc2C1c1ccc(Cl)c(Cl)c1 (centres unmarked) [Example 63, [1-(3,4-dichloro-phenyl)-3,4-dihydro-1H-pyrrolo[1,2-a]pyrazin-2-yl]-(2-fluoro-phenyl)-methanone] | 71
22 | 27 | CCC(C)C(=O)N1CCn2cccc2C1c1ccccc1OC (centres unmarked) [Example 48, 1-(1-(2-methoxyphenyl)-3,4-dihydropyrrolo[1,2-a]pyrazin-2(1H)-yl)-2-methylbutan-1-one] | –
23 | 31 | O=C(C1CC1)N1CCn2cccc2C1c1cccs1 (centres unmarked) [Example 59, cyclopropyl(1-(thiophen-2-yl)-3,4-dihydropyrrolo[1,2-a]pyrazin-2(1H)-yl)methanone] | 10
24 | 51 | O=C(C1CCCC1)N1CCn2cccc2C1c1ccc(Cl)c(Cl)c1 (centres unmarked) [Example 62, cyclopentyl-[1-(3,4-dichloro-phenyl)-3,4-dihydro-1H-pyrrolo[1,2-a]pyrazin-2-yl]-methanone] | 29
25 | 27 | CN(C)c1ccc(C2c3cccn3CCN2C(=O)C2CC2)cc1 (centres unmarked) [Example 52, cyclopropyl(1-(4-(dimethylamino)phenyl)-3,4-dihydropyrrolo[1,2-a]pyrazin-2(1H)-yl)methanone] | 16
26 | 17 | O=C(CCCc1ccccc1)N1CCn2cccc2C1c1cccs1 (centres unmarked) [Example 87, 4-phenyl-1-(1-(thiophen-2-yl)-3,4-dihydropyrrolo[1,2-a]pyrazin-2(1H)-yl)butan-1-one] | –
27 | 41 | Cc1ccccc1C(=O)N1CCn2cccc2C1c1ccc(N(C)C)cc1 (centres unmarked) [Example 50, (1-(4-(dimethylamino)phenyl)-3,4-dihydropyrrolo[1,2-a]pyrazin-2(1H)-yl)(o-tolyl)methanone] | 14
28 | 46 | CC(C)C(=O)N1CCn2cccc2C1c1ccc(Cl)c(Cl)c1 (centres unmarked) [Example 67, 1-(1-(3,4-dichlorophenyl)-3,4-dihydropyrrolo[1,2-a]pyrazin-2(1H)-yl)-2-methylpropan-1-one] | 46
29 | 16 | CC(=O)N1CCn2cccc2C1c1cccs1 (centres unmarked) [Example 83, 1-(1-(thiophen-2-yl)-3,4-dihydropyrrolo[1,2-a]pyrazin-2(1H)-yl)ethanone] | –
30 | 47 | COc1ccccc1C1c2cccn2CCN1C(=O)c1ccccc1F (centres unmarked) [Example 49, (2-fluorophenyl)(1-(2-methoxyphenyl)-3,4-dihydropyrrolo[1,2-a]pyrazin-2(1H)-yl)methanone] | 12
31 | 40 | Cc1ccc(C2c3cccn3CCN2C(=O)c2ccccc2F)cc1 (centres unmarked) [Example 69, (2-fluorophenyl)(1-p-tolyl-3,4-dihydropyrrolo[1,2-a]pyrazin-2(1H)-yl)methanone] | 12
32 | 27 | O=C(/C=C/c1ccc(F)cc1F)N1CCn2cccc2C1c1ccccc1 (centres unmarked) [Example 71, 3-(2,4-difluorophenyl)-1-(1-phenyl-3,4-dihydropyrrolo[1,2-a]pyrazin-2(1H)-yl)prop-2-en-1-one] | 17
33 | 32 | CC1c2cccn2CCN1C(=O)/C=C/c1ccc(SC(F)(F)F)cc1 (centres unmarked) [Example 74, 1-(1-methyl-3,4-dihydropyrrolo[1,2-a]pyrazin-2(1H)-yl)-3-(4-(trifluoromethylthio)phenyl)prop-2-en-1-one] | –
34 | 28 | CCC(OC)C(=O)N1CCn2cccc2C1c1cccs1 (centres unmarked) [Example 55, 2-methoxy-1-(1-(thiophen-2-yl)-3,4-dihydropyrrolo[1,2-a]pyrazin-2(1H)-yl)butan-1-one] | –
35 | 51 | CCCCCC(=O)N1CCn2cccc2C1c1cccs1 (centres unmarked) [Example 78, 1-(1-(thiophen-2-yl)-3,4-dihydropyrrolo[1,2-a]pyrazin-2(1H)-yl)hexan-1-one] | –
36 | 25 | CC1c2cccn2CCN1C(=O)/C=C/c1ccc(F)cc1 (centres unmarked) [Example 73, 3-(4-fluorophenyl)-1-(1-methyl-3,4-dihydropyrrolo[1,2-a]pyrazin-2(1H)-yl)prop-2-en-1-one] | –
37 | 12 | CC(C)(C)CC(=O)N1CCn2cccc2C1c1cccs1 (centres unmarked) [Example 85, 3,3-dimethyl-1-(1-(thiophen-2-yl)-3,4-dihydropyrrolo[1,2-a]pyrazin-2(1H)-yl)butan-1-one] | –
